According to patent publication US8980885B2, “Plant disease controlling composition and method for controlling plant disease” (Sumitomo Chemical Company, Limited, priority 2008, dated 2015):

System: Sclerotinia sclerotiorum
Assay: Controlling test against Sclerotinia sclerotiorum on cucumber by foliage spraying (Test Example 1)
Type: in vivo
Details: single compound, 12° C., high humidity, 6 days
Procedure: A sand loam was charged into a plastic pot, and cucumber (Sagamihanjiro) was seeded, and grown in a greenhouse for 12 days. A flowable of the compound I, and a flowable comprising any one of the compound II-i, the compound II-ii, the compound III, the compound IV, the compound V and the compound VI were diluted with water separately, and they were tank-mixed to prepare a tank mix solution having each predetermined concentration. The tank mix solution was subjected to foliage spraying so that it was sufficiently adhered to a leaf surface of the cucumber. After spraying, the plant was air-dried, and a PDA medium containing hyphae of Sclerotinia sclerotiorum was placed on the cucumber leaf surface. After seeding, this was placed under 12° C. and the high humidity for 6 days, the controlling effect was investigated. Separately, for comparison, each of the flowables was diluted with water to prepare a water-diluted solution of compounds I to VI having the predetermined concentration, and the similar controlling test was carried out. Further, for calculating a effective value, an onset area rate (ratio of onset area occupied in leaf area examined) in each treatment group was determined. The effective value was calculated by the Equation 1. […] A: Onset area rate of non-treated group B: Onset area rate of treated group In general, an effective value expected in treatment by mixing given two kinds of active ingredient compounds, i.e., an expected effective value is calculated by a Colby calculation equation of the Equation 2. E=X+Y−(X×Y)/100 “Equation 2” X: Effective value obtained by treatment with M ppm of the compound I Y: Effective value obtained by treatment with N ppm of the compound II, III or IV E: Effective value expected in treatment with M ppm of the compound I and N ppm of the compound II, III or IV (expected effective value) In addition, a synergistic effect was shown herein by a value calculated by the following Equation 3.

Row | SMILES | Actual effective value (0.2 ppm) [%] | Actual effective value (0.8 ppm) [%] | Actual effective value (3.1 ppm) [%]
1 | CNC(=O)/C(=N/OC)c1ccccc1COc1cc(C)ccc1C [Compound III, (αE)-2-[(2,5-dimethylphenoxy)methyl]-α-(methoxyimino)-N-methylbenzeneacetamino, reference compound] | 9 |  | 
2 | CNC(=O)C(OC)c1ccccc1COc1cc(C)ccc1C (racemic) [Compound II-ii] | 4 | 31 | 
3 | C=CCSC(=O)n1c(N)c(-c2ccccc2C)c(=O)n1C(C)C [Compound I] |  |  | 58
4 | CNC(=O)[C@H](OC)c1ccccc1COc1cc(C)ccc1C [Compound II-i] | 14 | 55 | 
5 | COC(=O)N(OC)c1ccccc1COc1ccn(-c2ccc(Cl)cc2)n1 [Compound VI, methyl 2-[[1-(4-chlorophenyl)-1H-pyrazol-3-yloxymethyl]phenyl](N-methoxy)carbamate, reference compound] | 29 |  | 
6 | CO/C=C(/C(=O)OC)c1ccccc1Oc1cc(Oc2ccccc2C#N)ncn1 [Compound V, methyl (E)-2-{2-[6-(2-cyanophenoxy)pyrimidin-4-yloxy]phenyl}-3-methoxyacrylate, reference compound] | 10 |  | 
7 | CO/N=C(/C(=O)OC)c1ccccc1CO/N=C(\C)c1cccc(C(F)(F)F)c1 [Compound IV, methyl (E)-methoxyimino-{(E)-α-[1-(α,α,α-trifluoro-m-tolyl]ethylideneaminooxy)-o-tolyl)acetate, reference compound] | 28 |  | 
